Results from patent US6596772B1, “Phosphate mimics and methods of treatment using phosphatase inhibitors” (Sugen, Inc., priority 1999, dated 2003).
Like-named read-outs stand apart in the source and are kept apart here.

Columns and labels:
Test in all cases: PTP IC50 assay, pNPP or FDP as substrate
Assay type in all cases: biochemical
PTP SIGMA = target: T1, PTP SIGMA (Homo sapiens, UniProt Q13332)
T1 construct: made in house; host or cells: E. coli BL-21 (pGEX 6P-1)
T1 sequence (Q13332 1320-1660 limits assumed): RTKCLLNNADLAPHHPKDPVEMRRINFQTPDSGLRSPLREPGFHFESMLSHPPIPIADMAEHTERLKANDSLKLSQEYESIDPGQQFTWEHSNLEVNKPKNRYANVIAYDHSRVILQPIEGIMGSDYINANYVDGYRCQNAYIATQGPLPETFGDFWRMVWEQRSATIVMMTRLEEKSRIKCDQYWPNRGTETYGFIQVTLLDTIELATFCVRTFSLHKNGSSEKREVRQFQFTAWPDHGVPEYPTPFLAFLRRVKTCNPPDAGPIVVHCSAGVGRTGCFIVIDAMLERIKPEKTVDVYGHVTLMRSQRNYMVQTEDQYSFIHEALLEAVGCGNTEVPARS
Experimental: (§1) The following in vitro assay procedure is preferred to determine the level of activity and effect of the different compounds of the present invention on one or more of the PTPs. Similar assays can be designed along the same lines for any PTP using techniques well known in the art.
(§2) The catalytic assays described herein are performed in a 96-well format. The general procedure begins with the determination of PTP optimal pH using a three-component buffer system that minimizes ionic strength variations across a wide range of buffer pH. Next, the Michaelis-Menten constant, or Km, is determined for each specific substrate-PTP system. This Km value is subsequently used as the substrate reaction concentration for compound screening. Finally, the test PTP is exposed to varying concentrations of compound for fifteen minutes and allowed to react with substrate for ten minutes. The results are plotted as percent inhibition versus compound concentration and the IC50 interpolated from the plot.
(§3) All assays were performed using pNPP or FDP as substrate. The optimum pH was determined for each PTP used.
(§4) PTPase activity was assayed at 25° C. in a 100-μl reaction mixture containing an appropriate concentration of pNPP or FDP as substrate. The reaction was initiated by addition of the PTP and quenched after 10 min by addition of 50 μl of IN NaOH. The non-enzymatic hydrolysis of the substrate was corrected by measuring the control without the addition of the enzyme. The amount of p-nitrophenol produced was determined from the absorbance at 410 nm. To determine the kinetic parameter, Km, the initial velocities were measured at various substrate concentrations and the data were fitted to the Michaelis equation where velocity=(Vmax*[S])/(Km+[S]), and [S]=substrate reaction concentration.
(§5) The effect of the compounds on PTP was evaluated at 25° C. using pNPP or FDP as substrate. PTP was pre-incubated for fifteen minutes with various concentrations of compound. Substrate was then added at a fixed concentration (usually equal to the Km previously calculated). After 10 minutes, NaOH was added to stop the reaction. The hydrolysis of pNPP was followed at 410 nm on the Biotek Powerwave 200 microplate scanning spectrophotometer. The percent inhibition was calculated as follows: Percent Inhibition=[(control signal−compound signal)/control signal] ×100%. The IC50 was then determined by interpolation of a percent inhibition versus compound concentration plot.
(§6) Plasmids designed for bacterial GST-PTP fusion protein expression were derived by insertion of PCR-generated human PTP fragments into pGEX vectors (Pharmacia Biotech). Several of these constructs were then used to subclone phosphatases into pFastBac-1for expression in Sf-9 insect cells. Oligonucleotides used for the initial amplification of PTP genes are shown below. The cDNAs were prepared using the Gilbo BRL superscript preamplification system on RNAs purchased from Clontech.
The PTP Sigma cDNA was amplified from human brain single strand cDNA (Clontech RNA) using the following oligonucleotides: 5′oligo: 5′-[…]-3′ (SEQ ID NO: 12) 3′oligo: 5′-[…]-3′ (SEQ ID NO: 13) and subsequently ligated into pGex 6P-1 Eco RI/Xho I sites.

PTP MU = target: T2, PTP MU (Homo sapiens, UniProt P28827)
T2 construct: made in house; host or cells: E. coli BL-21 (pGEX 6P-1)
T2 sequence (P28827 831-1186 limits assumed): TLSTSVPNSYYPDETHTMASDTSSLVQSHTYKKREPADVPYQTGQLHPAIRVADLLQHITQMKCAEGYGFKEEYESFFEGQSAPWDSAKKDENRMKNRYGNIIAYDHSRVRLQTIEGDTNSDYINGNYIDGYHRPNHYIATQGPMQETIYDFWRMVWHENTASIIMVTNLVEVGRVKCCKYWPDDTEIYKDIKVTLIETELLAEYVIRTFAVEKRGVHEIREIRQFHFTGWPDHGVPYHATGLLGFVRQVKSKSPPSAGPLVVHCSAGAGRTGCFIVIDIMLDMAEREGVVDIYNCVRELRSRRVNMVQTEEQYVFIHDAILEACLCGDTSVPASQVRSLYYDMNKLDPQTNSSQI

PTP SHP2 = target: T3, PTP SHP2 (Homo sapiens, UniProt Q06124)
T3 construct: The catalytic domain was amplified using the following oligonucleotides; made in house; host or cells: Sf-9 insect cells (pFastBac-G2T)
T3 sequence (Q06124 247-517 limits assumed): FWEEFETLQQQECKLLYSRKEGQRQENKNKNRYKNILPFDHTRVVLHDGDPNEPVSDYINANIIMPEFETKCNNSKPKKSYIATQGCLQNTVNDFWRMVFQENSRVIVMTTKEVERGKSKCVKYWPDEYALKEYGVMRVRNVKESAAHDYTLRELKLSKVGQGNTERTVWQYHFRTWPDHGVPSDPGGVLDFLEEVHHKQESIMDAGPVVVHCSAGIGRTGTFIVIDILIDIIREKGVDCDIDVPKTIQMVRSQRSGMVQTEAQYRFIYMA
Experimental: as §1, §2, §3, §4, §5, §6
SHP-2 cDNA was used as described earlier (Vogel W., et al.,1993, Science, 259:1611-4). The catalytic domain was amplified using the following oligonucleotides 5′oligo: 5′-[…]-3′ (SEQ ID NO: 2) 3′oligo: 5′-[…]-3′ (SEQ ID NO: 3) and subsequently subcloned into BamH1-Xba-1 sites. It was then ligated into pfas Bac-G2T BamH1-Xba-1 sites.

PTP BETA = target: T4, PTP BETA (Homo sapiens, UniProt P23467)
T4 construct: The catalytic domain was amplified using the following oligonucleotides; made in house; host or cells: E. coli BL-21 (pGEX 6P-1)
T4 sequence (P23467 1653-1997): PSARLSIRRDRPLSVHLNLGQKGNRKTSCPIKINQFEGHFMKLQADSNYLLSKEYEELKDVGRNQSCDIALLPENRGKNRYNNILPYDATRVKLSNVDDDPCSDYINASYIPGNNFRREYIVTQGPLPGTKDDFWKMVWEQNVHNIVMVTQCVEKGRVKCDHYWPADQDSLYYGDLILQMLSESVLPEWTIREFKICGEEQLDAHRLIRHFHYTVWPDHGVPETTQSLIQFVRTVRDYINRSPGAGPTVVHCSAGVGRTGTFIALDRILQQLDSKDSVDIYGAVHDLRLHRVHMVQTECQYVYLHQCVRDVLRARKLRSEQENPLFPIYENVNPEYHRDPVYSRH
Experimental: as §1, §2, §3, §4, §5, §6
The PTP Beta cDNA used has been described earlier (Levy et al., 1993, J. Biol. Chem, 268:10573-10581). The catalytic domain was amplified using the following oligonucleotides: 5′oligo: 5′-[…]-3′ (SEQ ID NO: 16) 3′oligo: 5′-[…]-3′ (SEQ ID NO: 17) and subsequently cloned into the Eco RI/Xho I sites of pGEX 6P-1.

[1] = pNPP or FDP as substrate, 25° C., read-out: PTP IC50 Sigma
[2] = pNPP or FDP as substrate, 25° C., read-out: PTP IC50 Mu
[3] = pNPP or FDP as substrate, 25° C., read-out: PTP IC50 SHP2
[4] = pNPP or FDP as substrate, 25° C., read-out: PTP IC50 Beta
[5] = comparison of R groups, read-out: IC50 Sigma
[6] = comparison of R groups, read-out: IC50 Mu
[7] = comparison of R groups, read-out: IC50 SHP2
[8] = comparison of R groups, read-out: IC50 Beta

| IC50 (PTP SIGMA; [1]) [µM] | IC50 (PTP MU; [2]) [µM] | IC50 (PTP SHP2; [3]) [µM] | IC50 (PTP BETA; [4]) [µM] | IC50 (PTP SIGMA; [5]) [µM] | IC50 (PTP MU; [6]) [µM] | IC50 (PTP SHP2; [7]) [µM] | IC50 (PTP BETA; [8]) [µM] | Structure (SMILES) |
| --- | --- | --- | --- | --- | --- | --- | --- | --- |
| 38.1 | 65.3 | 17.1 | 7 |  |  |  |  | O=S(=O)(Nc1ccc(OCCCCOc2ccc(NS(=O)(=O)C(F)(F)F)cc2)cc1)C(F)(F)F [Example 70, 1,4-Bis(4-trifluoromethylsulfonamidophenoxy)butane] |
| 7.6 | 3.9 | 2.8 | 26.6 |  |  |  |  | O=S(=O)(Nc1ccc(Oc2cccc(Oc3ccc(NS(=O)(=O)C(F)(F)F)cc3)c2)cc1)C(F)(F)F [Example 74, 1,3-Bis(4-trifluoromethylsulfonamidophenoxy)benzene] |
| 13.2 | 32.4 | 8 | 2.9 |  |  |  |  | O=S(=O)(Nc1ccc(-c2nnc(-c3ccc(NS(=O)(=O)C(F)(F)F)cc3)o2)cc1)C(F)(F)F [Example 75, 2,5-Bis(4-trifluoromethylsulfonamidophenyl)-(1,3,4)oxadiazole] |
| 20 | 6.7 | 1.8 | 6.4 |  |  |  |  | CC(C)(c1ccc(NS(=O)(=O)C(F)(F)F)cc1)c1ccc(C(C)(C)c2ccc(NS(=O)(=O)C(F)(F)F)cc2)cc1 [Example 76] |

The next lines start with the compound.

| Structure (SMILES) | IC50 (PTP SIGMA; [1]) [µM] | IC50 (PTP MU; [2]) [µM] | IC50 (PTP SHP2; [3]) [µM] | IC50 (PTP BETA; [4]) [µM] | IC50 (PTP SIGMA; [5]) [µM] | IC50 (PTP MU; [6]) [µM] | IC50 (PTP SHP2; [7]) [µM] | IC50 (PTP BETA; [8]) [µM] |
| --- | --- | --- | --- | --- | --- | --- | --- | --- |
| Cc1cc(NS(=O)(=O)C(F)(F)F)ccc1CCc1ccc(NS(=O)(=O)C(F)(F)F)cc1C [Example 67, 1,2-Bis(2-methyl-4-trifluoromethylsulfonamidophenyl)ethane] | 41.4 | 41.3 | 17 | 55.9 |  |  |  |  |
| CC(C)(COc1ccc(NS(=O)(=O)C(F)(F)F)cc1)COc1ccc(NS(=O)(=O)C(F)(F)F)cc1 [Example 68, 1,3-Bis(4-trifluoromethylsulfonamidophenoxy)-2,2-dimethylpropane] | 11.6 | 42 | 6.2 | 15.2 |  |  |  |  |
| O=S(=O)(Nc1ccc(OCCCOc2ccc(NS(=O)(=O)C(F)(F)F)cc2)cc1)C(F)(F)F [Example 69, 1,3-Bis(4-trifluoromethylsulfonamidophenoxy)propane] | 41.7 | 37 | 20.3 | > 100 |  |  |  |  |
| O=S(=O)(Nc1ccc(Oc2ccc(Oc3ccc(NS(=O)(=O)C(F)(F)F)cc3)cc2)cc1)C(F)(F)F [Example 71, 1,4-Bis(4-trifluoromethylsulfonamidophenoxy)benzene] | 44 |  | 3.4 | 12.1 | 44 | 4 | 3.4 | 12.1 |
| O=S(=O)(Nc1ccc(Oc2ccc(NS(=O)(=O)C(F)(F)F)cc2)cc1)C(F)(F)F [Example 73, Bis(4-trifluoromethylsulfonamidophenyl) ether] | > 100 | 76.1 | > 100 | > 100 |  |  |  |  |
| Nc1ccc(Oc2ccc(Oc3ccc(N)cc3)cc2)cc1 [NH2] |  |  |  |  | > 100 | > 100 | > 100 | > 100 |
